Experimental data taken from ChEMBL document CHEMBL1151612, “Potential anticancer agents XXXII. Hydroquinone from Ipomopsis aggregata” (1984).
In brackets after ≈: the same amount, converted by molar mass.

Experiments:
KB = experiment: Cytotoxicity against human KB cells; details: read-out: ED50
P388 = experiment: Cytotoxicity against mouse P388 cells; details: P388, read-out: ED50

Which EC50 (KB) does the source give for `Oc1ccc(O)cc1` [HYDROQUINONE] here?
The EC50 was 3.8 µg/mL (≈ 34.5 µM).

What about the EC50 (P388) of the same compound?
Its EC50 is 2.2 µg/mL (≈ 20 µM).
